Data taken from ChEMBL document CHEMBL1125855, “C-2 desmethyl seco-mevinic acids. Monocyclic HMG-CoA reductase inbibitors” (Bioorg Med Chem Lett, 1991).

target: T1, 3-hydroxy-3-methylglutaryl-coenzyme A reductase (Homo sapiens, UniProt P04035); experiment: (§1) In vitro ability to inhibit HMG-CoA reductase; details: read-out: I50
T1 sequence (P04035 whole entry): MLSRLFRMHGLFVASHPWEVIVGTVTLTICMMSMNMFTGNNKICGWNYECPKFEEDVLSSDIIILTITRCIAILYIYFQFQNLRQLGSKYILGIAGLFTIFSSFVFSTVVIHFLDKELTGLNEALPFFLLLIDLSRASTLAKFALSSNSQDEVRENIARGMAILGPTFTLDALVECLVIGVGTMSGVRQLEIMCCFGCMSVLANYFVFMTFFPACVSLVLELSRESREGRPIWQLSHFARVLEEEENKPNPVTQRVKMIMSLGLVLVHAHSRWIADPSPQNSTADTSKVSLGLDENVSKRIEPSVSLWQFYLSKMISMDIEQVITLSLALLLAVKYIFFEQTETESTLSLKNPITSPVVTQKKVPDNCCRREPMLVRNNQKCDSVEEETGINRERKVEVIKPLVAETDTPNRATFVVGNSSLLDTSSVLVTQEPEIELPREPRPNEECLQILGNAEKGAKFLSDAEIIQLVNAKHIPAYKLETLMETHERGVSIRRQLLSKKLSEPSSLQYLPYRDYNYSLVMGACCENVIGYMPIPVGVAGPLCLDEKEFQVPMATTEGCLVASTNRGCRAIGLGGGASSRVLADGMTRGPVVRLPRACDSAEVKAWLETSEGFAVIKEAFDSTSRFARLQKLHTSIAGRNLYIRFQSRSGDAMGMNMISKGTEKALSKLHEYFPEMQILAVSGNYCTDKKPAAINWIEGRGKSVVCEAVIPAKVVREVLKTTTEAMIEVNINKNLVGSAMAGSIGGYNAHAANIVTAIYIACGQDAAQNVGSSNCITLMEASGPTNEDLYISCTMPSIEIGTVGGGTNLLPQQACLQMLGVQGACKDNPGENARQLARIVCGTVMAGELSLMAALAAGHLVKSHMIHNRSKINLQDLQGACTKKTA

First: C[C@H]1C=CC[C@H](COC(=O)C(C)(C)C)[C@H]1CCC(O)CC(O)CC(=O)O (stereo partly specified)
Second: CCC[C@@H]1CC[C@H](C)[C@H](CC[C@@H](O)C[C@@H](O)CC(=O)O)[C@H]1COC(=O)C(C)(C)CC
The IC50 of the first is far higher: 1500 µM for the first, 0.008 µM for the second. The second is the more potent here.

Going from `CCC[C@@H]1CCC[C@H](CC[C@@H](O)C[C@@H](O)CC(=O)O)[C@H]1COC(=O)C(C)(C)CC` to `CCC(C)(C)C(=O)OC[C@H]1CCCC[C@@H]1CCC(O)C[C@@H](O)CC(=O)O` (stereo partly specified), the IC50 rises from 1.7 µM to 4.6 µM (2.7-fold).

With `CCC[C@@H]1CCC[C@H](/C=C/[C@@H](O)C[C@@H](O)CC(=O)O)[C@H]1COC(=O)C(C)(C)CC` the IC50 was 4.9 µM.

target: T2, 3-hydroxy-3-methylglutaryl-coenzyme A reductase (Rattus norvegicus, UniProt P51639); experiment: as §1; details: read-out: I50
T2 sequence (P51639 whole entry): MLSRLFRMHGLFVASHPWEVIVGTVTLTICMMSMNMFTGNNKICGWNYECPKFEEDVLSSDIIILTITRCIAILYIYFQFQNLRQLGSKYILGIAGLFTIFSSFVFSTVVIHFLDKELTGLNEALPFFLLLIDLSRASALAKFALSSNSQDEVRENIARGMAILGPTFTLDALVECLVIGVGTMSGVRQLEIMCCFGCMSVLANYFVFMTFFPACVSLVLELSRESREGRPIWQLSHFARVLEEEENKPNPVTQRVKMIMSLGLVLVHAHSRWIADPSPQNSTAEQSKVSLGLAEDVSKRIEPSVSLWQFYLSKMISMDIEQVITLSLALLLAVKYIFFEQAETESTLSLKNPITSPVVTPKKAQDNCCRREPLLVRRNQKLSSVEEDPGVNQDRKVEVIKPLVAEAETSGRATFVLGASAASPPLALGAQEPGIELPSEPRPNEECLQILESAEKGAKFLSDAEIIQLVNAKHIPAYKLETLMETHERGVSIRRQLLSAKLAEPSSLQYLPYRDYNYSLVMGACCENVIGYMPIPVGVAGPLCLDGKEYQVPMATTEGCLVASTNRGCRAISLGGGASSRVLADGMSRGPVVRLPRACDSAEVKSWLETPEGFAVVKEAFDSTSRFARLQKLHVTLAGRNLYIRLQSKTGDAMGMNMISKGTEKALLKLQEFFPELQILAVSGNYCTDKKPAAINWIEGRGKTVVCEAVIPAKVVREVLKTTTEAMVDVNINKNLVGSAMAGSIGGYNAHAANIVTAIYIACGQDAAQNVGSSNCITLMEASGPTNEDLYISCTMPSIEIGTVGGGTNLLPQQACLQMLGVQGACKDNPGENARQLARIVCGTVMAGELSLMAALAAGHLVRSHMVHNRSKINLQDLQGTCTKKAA

In the case of `CC[C@H](C)C(=O)OC[C@H]1CCCC[C@@H]1CCC(=O)C[C@@H](O)CC(=O)O`, the IC50 is reported as 320 µM.
